In US8901129B2, “Methods of facilitating neural cell survival using GDNF family ligand (GFL) mimetics or RET signaling pathway activators” (GeneCode AS, priority 2009, dated 2014):

How the values were obtained:
[1] = tested on: GFRα3/RET-expressing reporter cell line; assay: Reporter-gene luciferase activity assay, dose-response (FIG. 5); assay type: cell-based, human; conditions: GFRα3/RET cells; 1-50 μM, 24 h
From the text: Full-length flag-tagged rat Gfrα1 cDNA (Leppänen et al., 2004) subcloned into in pcDNA3 (Invitrogen). Full-length human GFRα1 cDNA (Sidorova et al., unpublished) subcloned in pcDNA6 (Invitrogen). Full-length human GFRα3 cDNA (Wang et al., 2006). Full-length human RET (long isoform) (Runeberg-Roos et al., 2007) in pCR3.1 (Invitrogen). The MAPK activation detection system (Baloh et al., 2000) and PathDetect Elk-1 (Stratagene) both of which include two plasmids. First one constitutively expresses MAPK pathway specific fusion transactivator, that consists of activation domain of Elk-1 and DNA-binding domain of the yeast GAL4 protein (Gal4-Elk1). The other plasmid, Gal4-Luc, carries luciferase gene under the control of a synthetic promoter containing the yeast GAL4 binding sequences.
(§1) Cells were plated on 96-well plates (or 384-well) in cell density 20 000 (or 5 000 for 384-well format) cells per well in DMEM, 10% FBS, 100 μg/ml Normocin, 2 μg/ml puromycin, 500 μg/ml of G418, 15 mM HEPES, pH 7.2 one day before assay. The following day, the compounds were added to a final concentration of 1-50 μM. Structures of the compounds are shown in the description of FIG. 5, above. Cells were allowed to produce luciferase for 24 h, then lysed in 20 μl of 1×Cell culture lysis reagent (Promega) and freeze-thawed once to ensure complete lysis. Then 5 μl of the lysate was mixed (on ice) with 20 μl of luciferase assay substrate (Promega) in a well of black Isoplate (PerkinElmer). Luminescence was counted on MicroBeta 2 counter (PerkinElmer) twice. Data are presented as fold induction, where the corresponding concentration of DMSO was used as a reference.

[2] = tested on: RET-expressing reporter cell line (RET alone); assay: as above; assay type: cell-based; conditions: cells expressing RET alone; 1-50 μM, 24 h
Method: Generation of stable cell lines. MG87RET murine fibroblast were plated on […] dishes and transfected with 4 μg of G4-Luc, Gal4-Elk (Baloh et al., 2000) and GFRα1 expressing plasmid (“αLUC” cells) or empty vector (“NOα” cells) containing neomycin-resistance gene in ratio 4:1:1 using Lipofectamine 2000 (Invitrogen) for DNA delivery as described by manufacturer. The following day, cells were trypsinized and plated in low density on 10-cm tissue culture dishes. Stable transformants were selected in the presence of 500-750 μg/ml geneticin (Invitrogen). Established cell lines were maintained in DMEM, 10% fetal bovine serum (FBS), 100 μg/ml Normocin (Invivogene), 2 μg/ml of puromycin, 500 μg/ml of geneticin, 15 mM HEPES, pH 7.2. Pathdetect Elk-1 system and human GFRα1-expressing plasmid (“Strat-Luc” cells) or empty vector (control cell line “NOStratis”) cells were selected and maintained in the DMEM, 10% FBS, 100 μg/ml Normocin (Invivogene), 2 μg/ml of puromycin, 500 μg/ml of G418, 2 μg/ml of blasticidin S, 15 mM HEPES, pH 7.2.
as §1

6-OHDA lesioned rats = assay: Amphetamine induced rotation asymmetry in 6-OHDA rat model of Parkinson's disease (FIG. 7); assay type: in vivo; conditions: for amphetamine-induced ipsilateral rotation: 3 weeks after 6-OHDA, measured 6 weeks after 6-OHDA; for amphetamine-induced ipsilateral rotation of lesioned rats: injected into striatum 3 weeks after 6-OHDA, dose not stated
From the text: The objective of this study is to investigate the effect of intrastriatally (i.s.) administered small molecule GDNF mimetics (compounds 13, 16, 319H6 and 292651, structures shown in the description of the Figures, above) in a rat model 6-OHDA of Parkinson's disease. In the sub-acute lesion model used in this study, the lesion of the substantia nigra (SNc) that slowly progresses over weeks is created by injection of 6-OHDA into the proximity of the dopaminergic terminals in the striatum (Kirik-D 1998, Exp. Neurol. 152:259-277). In this model, a portion of the nigrostriatal projection is left intact, which can serve as a substrate for regeneration and functional recovery in response to growth promoting and neuroprotective agents.
GDNF mimetics compounds, GDNF or vehicle is administered to the striatum at 3 weeks after the exposure to the neurotoxin 6-OHDA. The selective damage to dopaminergic neurons in the SNc, as well as striatal levels of dopamine and its metabolites are evaluated 12 weeks after the injection of 6-OHDA with tyrosine hydroxylase (TH) immunohistochemistry and HPLC, respectively. In addition, the behavioral impairment of rats is evaluated by forelimb asymmetry test (cylinder test), amphetamine induced rotation asymmetry test and Y-maze test for stereotypic spontaneous rotation deficits.
Animals: All animal experiments are carried out according to the National Institute of Health (NIH) guidelines for the care and use of laboratory animals, and approved by the State Provincial Office of Southern Finland. Altogether 108 male Wistar rats, purchased from Charles River, Germany and weighing 220-275 g are used for the experiment. Animals are housed at a standard temperature (22±1° C.) and in a light-controlled environment (lights on from 7 am to 8 pm) with ad libitum access to food and water. Animals are grouped as follows:
In order to generate partial retrograde degeneration into the SNc, 6-OHDA lesioning is carried out according to Sauer and Oertel with modifications (Sauer and Oertel, 1994). Male Wistar rats are anesthetized with 5% isoflurane (in 70% N2O and 30% O2; flow 300 ml/min) and placed in a stereotactic frame. During the operation concentration of anesthetic is reduced to 1-1.5%. The rectal temperature is maintained at 37.0±1.0° C. with a homeothermic blanket system. The right brain hemisphere is exposed through a small craniectomy to the skull. The dura mater is carefully removed with fine forceps and a stereotaxic injection of 6-OHDA (4 μg/μl) is made into the right striatum. A total of 7 μl of 6-OHDA is infused at a speed of 0.5 μl/min and is equally distributed between 4 sites at the following coordinates: AP+1.0, ML+2.8, DV−6.0, −5.5, −5.0 and −4.4 mm. The cannula is left in place for another 5 min before being withdrawn. The hole in the skull is subsequently filled with repair material and the skin is closed and disinfected. The rats are allowed to recover from anesthesia and are carefully monitored for possible post surgical complications. The animals are returned to the home cages with ad libitum access to food and water.
On day 21, rats are re-anesthetized with 5% isoflurane (in 70% N2O and 30% O2; flow 300 ml/min) and placed in a stereotactic frame. During the operation concentration of anesthetic is reduced to 1-1.5%. The rectal temperature is maintained at 37.0±1.0° C. with a homeothermic blanket system. The right brain hemisphere is exposed through a small craniectomy to the skull. A stereotaxic injection of the test compound, GDNF or vehicle is made into the right striatum. Each dosing solution is infused at a speed of 1 μl/min and is equally distributed between 4 sites at the following coordinates: AP+1.0, ML+2.8, DV−6.0, −5.5, −5.0 and −4.4 mm. The cannula is left in place for another 5 min before being withdrawn. The hole in the skull is subsequently filled with repair material and the skin is closed and disinfected. […]

**Q.** What does the source list for `CCN(CC)S(=O)(=O)c1ccc(OC)c(N2CCN(C(=O)c3cc(F)ccc3C(F)(F)F)CC2)c1` [BT13]?
**A.** induction of luciferase expression [1]: in a dose-dependent manner induce luciferase expression; induction of luciferase expression [2]: No significant effect; amphetamine-induced ipsilateral rotation (6-OHDA lesioned rats; 0.2 ug intrastriatal): reduced amphetamine-induced ipsilateral rotation; amphetamine-induced ipsilateral rotation of lesioned rats (6-OHDA lesioned rats): significantly reduce

**Q.** `COc1ccc(S(=O)(=O)N2CCc3ccccc3C2)cc1N1CCN(C(=O)c2cc(F)ccc2C(F)(F)F)CC1` [BT16] was tested. Which “induction of luciferase expression” value [1] did it give?
**A.** in a dose-dependent manner induce luciferase expression

**Q.** What about the “induction of luciferase expression” value [2] of the same compound?
**A.** No significant effect

**Q.** What about the “amphetamine-induced ipsilateral rotation of lesioned rats” value (6-OHDA lesioned rats) of the same compound?
**A.** significantly reduce

**Q.** And the amphetamine-induced ipsilateral rotation (6-OHDA lesioned rats; intrastriatal (Group 5: 0.5 ug per rat))?
**A.** reduced amphetamine-induced ipsilateral rotation

**Q.** With `COc1cc2c(cc1OC)CN(S(=O)(=O)c1ccc(OC)c(N3CCN(C(=O)c4cc(F)ccc4C(F)(F)F)CC3)c1)CC2` [BT18] as the compound, how does the amphetamine-induced ipsilateral rotation (6-OHDA lesioned rats; 1 ug intrastriatal) read?
**A.** reduced amphetamine-induced ipsilateral rotation

**Q.** And the “amphetamine-induced ipsilateral rotation of lesioned rats” value (6-OHDA lesioned rats)?
**A.** significantly reduce
